This passage reports IC50 results from patent US12371454B2, “Cyclic peptide compound having Kras inhibitory action” (priority 2019, dated 2025).

Assay [1] has as its target T1, Kras and SOS1 (biotin-tagged human Kras loaded with GDP, His-tagged human SOS1) (Homo sapiens, UniProt P01116, G12D).
T1 construct: made in house; host or cells: E. coli (stated for Kras only)
Kind of assay: Protein-protein interaction inhibition between Kras and SOS1 (KrasGl2D-SOS PPI) using AlphaScreen. The class given is binding. Particulars: AlphaScreen; biotin-tagged human Kras loaded with GDP, His-tagged human SOS1; read-out: KRAS G12D-SOS PPI IC50. In short, it runs like this: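 Read-out is acceptor-bead light at 520-620 nm, arising when 680 nm-irradiated nickel donor beads pass singlet oxygen to streptavidin acceptors. The bead pair links His-tagged SOS1 with biotin-tagged, GDP-bound Kras from E. coli.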
For orientation: In Alpha technology, singlet oxygen from a donor bead excites a nearby acceptor bead.

Assay [2] concerns Human pancreatic cancer cell line AsPC-1. Kind of assay: Measurement of AsPC-1 cell growth inhibition (AsPC-1 CGI). Particulars: 96 h. It counts as cell-based. In short, it runs like this:
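AsPC-1 cells in 15% FBS RPMI-1640 were exposed to test compound for 96 hours at 37° C, with CellTiter-Glo as endpoint.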

Positions of bridges follow the written chain, without caps; N, C: chain ends. Non-standard residues stand in square brackets, D forms with d. Residues, ends and D or L forms follow the SMILES beside them. *: point of attachment. hPhe(3-Cl-4-CF3) = N[C@@H](CCc1ccc(C(F)(F)F)c(Cl)c1)C(=O)O; hPhe(3-F,4-CF3) = N[C@@H](CCc1ccc(C(F)(F)F)c(F)c1)C(=O)O; NMeAla(4-thiazolyl) = CN[C@@H](Cc1cscn1)C(=O)O; 3Oxa8azabicyclo(3.2.1)octane = C1CC2COCC1N2*; NMeAbu(4,4,4-F3) = CN[C@@H](CC(F)(F)F)C(=O)O; NMePhe(3-Me) = CN[C@@H](Cc1cccc(C)c1)C(=O)O; NMePhe(4-Me) = CN[C@@H](Cc1ccc(C)cc1)C(=O)O; NMeAla(cPent) = CN[C@@H](CC1CCCC1)C(=O)O; NMeGly(cPent) = CN[C@H](C(=O)O)C1CCCC1; NMe4Pal = CN[C@@H](Cc1ccncc1)C(=O)O; NMeGly(cBu) = CN[C@H](C(=O)O)C1CCC1; NMeCha = CN[C@@H](CC1CCCCC1)C(=O)O; NMeChg = CN[C@H](C(=O)O)C1CCCCC1; NMeI = CC[C@H](C)[C@H](NC)C(=O)O; NMeD = CN[C@@H](CC(=O)O)C(=O)O; NMeL = CN[C@@H](CC(C)C)C(=O)O; NMeNva = CCC[C@H](NC)C(=O)O; NMeV = CN[C@H](C(=O)O)C(C)C; Trifluoroethyl = FC(F)(F)C*; d(β3hA) = C[C@@H](N)CC(=O)O; NMeS = CN[C@@H](CO)C(=O)O; Ac6c = NC1(C(=O)O)CCCCC1; Morpholide = C1CN(*)CCO1; NMeA = CN[C@@H](C)C(=O)O; Piperidide = C1CCN(*)CC1; Ac5c = NC1(C(=O)O)CCCC1; Aze = O=C(O)[C@@H]1CCN1; Ac4c = NC1(C(=O)O)CCC1; Sar = CNCC(=O)O; Propyl = CCC*

T1 sequence (P01116 1-188 isoform P01116-2 G12D): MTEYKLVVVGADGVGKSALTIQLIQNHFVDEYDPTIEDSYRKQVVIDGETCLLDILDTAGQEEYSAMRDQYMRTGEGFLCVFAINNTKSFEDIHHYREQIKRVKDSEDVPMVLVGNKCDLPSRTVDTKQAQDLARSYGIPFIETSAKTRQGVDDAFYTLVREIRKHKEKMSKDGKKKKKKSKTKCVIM

Usually IC50 stands for the concentration that inhibits the measured activity by half. `CC[C@H](C)[C@@H]1NC(=O)[C@H](CC(C)C)N(C)C(=O)C[C@@H](C(=O)N2CCCCC2)N(C)C(=O)[C@H](C(C)C)N(C)C(=O)C2(CCCC2)NC(=O)[C@@H]2CCCN2C(=O)[C@H](CCc2ccc(C(F)(F)F)c(Cl)c2)NC(=O)CN(C)C(=O)[C@H](CC2CCCCC2)N(C)C(=O)CN(C)C(=O)CN(C)C1=O` [Compound 438] ([NMeL]I[Sar][Sar][NMeCha][Sar][hPhe(3-Cl-4-CF3)]P[Ac5c][NMeV][NMeD]-Piperidide; lactam N-11): the concentration for half-maximal inhibition (IC50) in assay [1] is 6 nM; in assay [2] it was 50 to 100 nM.
On the same counts, the results for `CC[C@H](C)[C@@H]1NC(=O)[C@H](CC(C)C)N(C)C(=O)C[C@@H](C)NC(=O)[C@H](C(C)C)N(C)C(=O)C2(CCCCC2)NC(=O)[C@@H]2CCCN2C(=O)[C@H](CCc2ccc(C(F)(F)F)c(Cl)c2)NC(=O)CN(C)C(=O)[C@H](CC2CCCCC2)N(C)C(=O)CN(C)C(=O)CN(C)C1=O` [Compound 439] (cyclo([Ac6c][NMeV][d(β3hA)][NMeL]I[Sar][Sar][NMeCha][Sar][hPhe(3-Cl-4-CF3)]P)) are 52 nM and 100 to 500 nM.
The corresponding values for `CC[C@H](C)[C@@H]1NC(=O)[C@H](CC(C)C)N(C)C(=O)C[C@@H](C(=O)N(C)C)N(C)C(=O)[C@H]([C@@H](C)CC)N(C)C(=O)C2(CCCC2)NC(=O)[C@H](Cc2cscn2)N(C)C(=O)[C@H](CCc2ccc(C(F)(F)F)c(Cl)c2)NC(=O)CN(C)C(=O)[C@H](Cc2ccc(C)cc2)N(C)C(=O)[C@@H]2CCN2C(=O)[C@H](C)N(C)C1=O` [Compound 441] ([NMeL]I[NMeA][Aze][NMePhe(4-Me)][Sar][hPhe(3-Cl-4-CF3)][NMeAla(4-thiazolyl)][Ac5c][NMeI][NMeD]-NMe2; lactam N-11) are 0.73 nM and 20 to 50 nM.
The corresponding values for `CCCOC[C@H]1C(=O)N(C)CC(=O)N[C@@H](CCc2ccc(C(F)(F)F)c(Cl)c2)C(=O)N2CCC[C@H]2C(=O)NC2(CCCC2)C(=O)N(C)[C@@H](C2CCCCC2)C(=O)N(C)[C@H](C(=O)N2CCOCC2)CC(=O)N(C)[C@@H](CC(F)(F)F)C(=O)N[C@@H]([C@@H](C)CC)C(=O)N(C)CC(=O)N(C)CC(=O)N1C` [Compound 445] ([NMeAbu(4,4,4-F3)]I[Sar][Sar][NMeS](Propyl)[Sar][hPhe(3-Cl-4-CF3)]P[Ac5c][NMeChg][NMeD]-Morpholide; lactam N-11) are 0.67 nM and 100 to 500 nM.
Regarding `CC[C@H](C)[C@@H]1NC(=O)[C@H](CC(C)C)N(C)C(=O)C[C@@H](C(=O)N(C)C)N(C)C(=O)[C@H](C2CCCC2)N(C)C(=O)C2(CCCC2)NC(=O)[C@H](Cc2cccc(C)c2)N(C)C(=O)[C@H](CCc2ccc(C(F)(F)F)c(Cl)c2)NC(=O)CN(C)C(=O)[C@H](CC2CCCCC2)N(C)C(=O)[C@@H]2CCN2C(=O)[C@H](C)N(C)C1=O` [Compound 449] ([NMeL]I[NMeA][Aze][NMeCha][Sar][hPhe(3-Cl-4-CF3)][NMePhe(3-Me)][Ac5c][NMeGly(cPent)][NMeD]-NMe2; lactam N-11), the IC50 in assay [1] is 30 nM; in assay [2], 100 to 500 nM.
In the case of `CC[C@H](C)[C@@H]1NC(=O)[C@H](C2CCCCC2)N(C)C(=O)C[C@@H](C)NC(=O)[C@H](C(C)C)N(C)C(=O)C2(CCCC2)NC(=O)[C@@H]2CCCN2C(=O)[C@H](CCc2ccc(C(F)(F)F)c(Cl)c2)NC(=O)CN(C)C(=O)[C@H](CC2CCCCC2)N(C)C(=O)CN(C)C(=O)CN(C)C1=O` [Compound 456] (cyclo([Ac5c][NMeV][d(β3hA)][NMeChg]I[Sar][Sar][NMeCha][Sar][hPhe(3-Cl-4-CF3)]P)), the values for the IC50 in assay [1] and in assay [2] were 34 nM and 100 to 500 nM, respectively.
The corresponding values for `CC[C@H](C)[C@@H]1NC(=O)[C@H](C2CCC2)N(C)C(=O)C[C@@H](C(=O)N2C3CCC2COC3)N(C)C(=O)[C@H](C2CCCCC2)N(C)C(=O)C2(CCCC2)NC(=O)[C@@H]2CCCN2C(=O)[C@H](CCc2ccc(C(F)(F)F)c(Cl)c2)NC(=O)CN(C)C(=O)[C@H](CC2CCCC2)N(C)C(=O)CN(C)C(=O)CN(C)C1=O` [Compound 461] ([NMeGly(cBu)]I[Sar][Sar][NMeAla(cPent)][Sar][hPhe(3-Cl-4-CF3)]P[Ac5c][NMeChg][NMeD]-{3Oxa8azabicyclo(3.2.1)octane}; lactam N-11) are 1.2 nM and 100 to 500 nM.
In the case of `CCC[C@H]1C(=O)NC2(CCCC2)C(=O)N(C)[C@@H](C2CCCCC2)C(=O)N(C)[C@H](C(=O)N2CCCCC2)CC(=O)N(C)[C@@H](CC(C)C)C(=O)N[C@@H]([C@@H](C)CC)C(=O)N(C)CC(=O)N2CC[C@H]2C(=O)N(C)[C@@H](CC2CCCCC2)C(=O)N(C)CC(=O)N[C@@H](CCc2ccc(C(F)(F)F)c(Cl)c2)C(=O)N1C` [Compound 478] ([NMeL]I[Sar][Aze][NMeCha][Sar][hPhe(3-Cl-4-CF3)][NMeNva][Ac5c][NMeChg][NMeD]-Piperidide; lactam N-11), the IC50 in assay [1] was 3 nM; in assay [2] it was 100 to 500 nM.
As for `CC[C@H](C)[C@@H]1NC(=O)[C@H](CC(C)C)N(C)C(=O)C[C@@H](C(=O)N2CCCCC2)N(C)C(=O)[C@H](C2CCCCC2)N(C)C(=O)C2(CCCC2)NC(=O)[C@H](Cc2ccncc2)N(C)C(=O)[C@H](CCc2ccc(C(F)(F)F)c(Cl)c2)NC(=O)CN(C)C(=O)[C@H](CC2CCCCC2)N(C)C(=O)[C@@H]2CCN2C(=O)CN(C)C1=O` [Compound 480] ([NMeL]I[Sar][Aze][NMeCha][Sar][hPhe(3-Cl-4-CF3)][NMe4Pal][Ac5c][NMeChg][NMeD]-Piperidide; lactam N-11), the IC50 in assay [1] is 1.4 nM; in assay [2], 100 to 500 nM.
On the same counts, the results for `CC[C@H](C)[C@@H]1NC(=O)[C@H](C)N(C)C(=O)C[C@@H](C(=O)N2CCCCC2)N(C)C(=O)[C@H](C2CCCCC2)N(C)C(=O)C2(CCCC2)NC(=O)[C@@H]2CCCN2C(=O)[C@H](CCc2ccc(C(F)(F)F)c(F)c2)NC(=O)CN(C)C(=O)[C@H](CC2CCCCC2)N(C)C(=O)CN(C)C(=O)CN(C)C1=O` [Compound 491] ([NMeA]I[Sar][Sar][NMeCha][Sar][hPhe(3-F,4-CF3)]P[Ac5c][NMeChg][NMeD]-Piperidide; lactam N-11) are 0.35 nM and 100 to 500 nM.
On the same counts, the results for `CC[C@H](C)[C@@H]1NC(=O)[C@H](COCC(F)(F)F)N(C)C(=O)C[C@@H](C(=O)N2CCCCC2)N(C)C(=O)[C@H](C2CCCCC2)N(C)C(=O)C2(CCCC2)NC(=O)[C@@H]2CCCN2C(=O)[C@H](CCc2ccc(C(F)(F)F)c(Cl)c2)NC(=O)CN(C)C(=O)[C@H](CC2CCCCC2)N(C)C(=O)CN(C)C(=O)CN(C)C1=O` [Compound 518] ([NMeS](Trifluoroethyl)I[Sar][Sar][NMeCha][Sar][hPhe(3-Cl-4-CF3)]P[Ac5c][NMeChg][NMeD]-Piperidide; lactam N-11) are 0.67 nM and 50 to 100 nM.
In the case of `CC[C@H](C)[C@@H]1NC(=O)[C@H](CC(C)C)N(C)C(=O)C[C@@H](C)NC(=O)[C@H](C(C)C)N(C)C(=O)C2(CCC2)NC(=O)[C@@H]2CCCN2C(=O)[C@H](CCc2ccc(C(F)(F)F)c(Cl)c2)NC(=O)CN(C)C(=O)[C@H](CC2CCCCC2)N(C)C(=O)CN(C)C(=O)CN(C)C1=O` [Compound 520] (cyclo([Ac4c][NMeV][d(β3hA)][NMeL]I[Sar][Sar][NMeCha][Sar][hPhe(3-Cl-4-CF3)]P)), the IC50 in assay [1] was 17 nM; in assay [2] it was 100 to 500 nM.
